The values below come from ChEMBL document CHEMBL1201862, “PubChem BioAssay data set” (2004).

Each structure is given as a SMILES string.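 Briefly, cells in 96-well plates were exposed to five compound concentrations for 48 h, and endpoints were estimated by linear interpolation. GI50 marks 50% less growth.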 The source made the active and inactive calls. No stated cut-off is given here; in the data, active = GI50 up to about 1.1 µM and inactive = higher. Some results are limits rather than exact numbers.

Test systems include IGROV-1; NCI-H522; SW-620; K562; LXFL 529; KM12; EKVX; UO-31; RPMI-8226; SF-268; OVCAR-3; CAKI-1; UACC-62; A498; SK-MEL-5.
Holding throughout (experiment): DTP human tumour cell line panel, 48 h

Regarding `Brc1ccc2ns[s+]c2c1`, the GI50 (in general, the concentration that inhibits growth by half) in the assay with IGROV-1 was 26.7 µM (inactive); in the assay with NCI-H522, 4.79 µM (inactive); with SW-620, 8.63 µM (inactive); in the assay on K562 it was 0.321 µM (active); in the assay on LXFL 529, 0.404 µM (active); in the assay on KM12 it was 3.79 µM (inactive). Also, the GI50 in the assay with EKVX was 13 µM (inactive); in the assay on UO-31 it was 4.36 µM (inactive); in the assay with RPMI-8226, 4.71 µM (inactive); in the assay on SF-268, 2.58 µM (inactive); with OVCAR-3 it was 29.1 µM (inactive); in the assay with CAKI-1, 2.49 µM (inactive). Further, the GI50 in the assay with UACC-62 was 0.446 µM (active); in the assay with A498, > 100 µM (inactive).

As to `COC(=O)C1CCc2nnc(-c3ccccc3)n21` (configuration not stated), the GI50 in the assay on IGROV-1, in the assay with SK-MEL-5, in the assay with NCI-H522, with SW-620, in the assay on K562 and in the assay with LXFL 529 was > 100 µM (inactive) in each case. The GI50 in the assay with KM12, in the assay on EKVX, in the assay on UO-31, in the assay with RPMI-8226, in the assay on SF-268 and with OVCAR-3 was > 100 µM (inactive) in each case. The GI50 in the assay on CAKI-1, with UACC-62 and in the assay with A498 was > 100 µM (inactive) in each case.

As for `CN1c2ccccc2N(C(=O)c2ccc(Cl)cc2)C(CC(=O)O)c2cccn21` (configuration not stated), the GI50 in the assay with IGROV-1, with SK-MEL-5, with NCI-H522, with SW-620, in the assay on K562 and in the assay on LXFL 529 was > 100 µM (inactive) throughout. Further, the GI50 in the assay on KM12, in the assay on EKVX, in the assay on UO-31, in the assay on RPMI-8226, in the assay with SF-268 and with OVCAR-3 was > 100 µM (inactive) throughout. Besides, the GI50 with CAKI-1, in the assay on UACC-62 and with A498 was > 100 µM (inactive) each time.

Regarding `COC(=O)CCSC(=O)Nc1ccc(/N=N/c2ccccc2)cc1`, the GI50 with IGROV-1 is 56.9 µM (inactive); with SK-MEL-5, 51.9 µM (inactive); with SW-620 it was > 100 µM (inactive); in the assay with K562 it was 45.8 µM (inactive); in the assay on LXFL 529, 36.6 µM (inactive); with KM12 it was 31.1 µM (inactive). The GI50 was 39.5 µM (inactive) with EKVX; 51.3 µM (inactive) with UO-31; 49.1 µM (inactive) with RPMI-8226; > 100 µM (inactive) in the assay with SF-268; 29.5 µM (inactive) in the assay with OVCAR-3; 98.4 µM (inactive) in the assay on CAKI-1. Moreover, the results for the GI50 in the assay on UACC-62 and in the assay with A498 were 34.4 µM (inactive) and 29.5 µM (inactive), respectively.

With `CCC(=O)C(C)C(=O)C(=O)C(=O)OC` (configuration not stated), the GI50 in the assay with IGROV-1 is > 100 µM (inactive); with SK-MEL-5 it was > 100 µM (inactive); in the assay with NCI-H522, > 100 µM (inactive); in the assay with SW-620, > 26.2 µM (inactive); in the assay with K562, > 66.1 µM (inactive); in the assay on LXFL 529, > 100 µM (inactive). In addition, the GI50 with KM12, in the assay with EKVX, in the assay on UO-31, in the assay on RPMI-8226, in the assay with SF-268 and in the assay with OVCAR-3 was > 100 µM (inactive) throughout. The GI50 with CAKI-1, with UACC-62 and in the assay on A498 was > 100 µM (inactive) in each case.

On to `Cn1c(=O)nc2n(-c3ccc(F)c(F)c3)c3ccccc3nc-2c1=O`, for which the GI50 with IGROV-1 was 15.2 µM (inactive); in the assay on SK-MEL-5, 8.18 µM (inactive); in the assay on NCI-H522, 10.4 µM (inactive); with SW-620, 7.85 µM (inactive); in the assay on K562, 15.5 µM (inactive); with LXFL 529 it was 21.3 µM (inactive). Further, the GI50 with KM12 is 20.8 µM (inactive); in the assay on EKVX, 4.82 µM (inactive); with UO-31, 37.9 µM (inactive); with RPMI-8226, 16.8 µM (inactive); in the assay with SF-268, 18.5 µM (inactive); in the assay with OVCAR-3 it was 3.13 µM (inactive). For the same compound, the GI50 was 38.4 µM (inactive) in the assay on CAKI-1, 2.4 µM (inactive) in the assay with UACC-62 and 42.9 µM (inactive) in the assay on A498.

As for `N#C/C(=C\c1ccccc1Br)C(=O)c1ccccc1`, the GI50 in the assay on IGROV-1 is > 10 µM (inactive); with SK-MEL-5, 16.5 µM (inactive); in the assay with NCI-H522, 58.2 µM (inactive); in the assay with SW-620 it was 2.04 µM (inactive); in the assay with K562, 0.55 µM (active); with LXFL 529, 12.3 µM (inactive). Also, the GI50 in the assay on KM12 was > 54.3 µM (inactive); with EKVX, > 100 µM (inactive); with UO-31 it was > 38.5 µM (inactive); with RPMI-8226, 9.86 µM (inactive); in the assay with SF-268, > 46 µM (inactive); in the assay with OVCAR-3 it was > 41.1 µM (inactive). Moreover, the GI50 with CAKI-1 is > 71.8 µM (inactive); in the assay with UACC-62, 29.5 µM (inactive); in the assay with A498, > 100 µM (inactive).

Consider `CC1=NN(C(=O)Cc2ccccc2)C(=O)/C1=C\c1ccccc1O`, for which the GI50 in the assay on IGROV-1, in the assay with SK-MEL-5, with NCI-H522, in the assay on SW-620, in the assay on K562 and in the assay with LXFL 529 was > 100 µM (inactive) throughout. Besides, the GI50 in the assay with KM12, in the assay on EKVX, in the assay with UO-31, in the assay on RPMI-8226, with SF-268 and in the assay with OVCAR-3 was > 100 µM (inactive) throughout. Besides, the GI50 with CAKI-1, in the assay on UACC-62 and in the assay on A498 was > 100 µM (inactive) in each case.

In the case of `CCCCCCC(O)CC[C@H]1CCC[C@@H](C)N1` (some centres not stated), the GI50 was > 100 µM (inactive) in the assay with IGROV-1; 55 µM (inactive) in the assay with SK-MEL-5; > 100 µM (inactive) in the assay with NCI-H522; > 100 µM (inactive) in the assay on SW-620; > 100 µM (inactive) with K562; > 100 µM (inactive) in the assay on LXFL 529. Moreover, the GI50 was > 10 µM (inactive) in the assay with KM12; > 100 µM (inactive) in the assay on EKVX; > 84.3 µM (inactive) in the assay on UO-31; > 100 µM (inactive) in the assay on RPMI-8226; > 31.6 µM (inactive) in the assay with SF-268; > 10 µM (inactive) in the assay on OVCAR-3. The GI50 with CAKI-1 was > 100 µM (inactive); in the assay with UACC-62 it was 72.6 µM (inactive); in the assay with A498, > 10 µM (inactive).

On to `CCOc1ccccc1N1C(=O)C(=O)C(c2nc3ccccc3s2)C(=O)C1=O`, for which the GI50 was 19.3 µM (inactive) in the assay on IGROV-1; 58.9 µM (inactive) in the assay on SW-620; 35.5 µM (inactive) with LXFL 529; 98.2 µM (inactive) in the assay on KM12; > 100 µM (inactive) in the assay on EKVX; 34.7 µM (inactive) in the assay on UO-31. Further, the GI50 is > 100 µM (inactive) in the assay with RPMI-8226; 82.6 µM (inactive) in the assay with SF-268; 17.4 µM (inactive) in the assay on OVCAR-3; 38.5 µM (inactive) in the assay with CAKI-1; > 100 µM (inactive) in the assay with UACC-62; 16.6 µM (inactive) with A498.

On to `CCCOc1ccc(/C(Cl)=C(\C=O)c2ccc(OC)c(OC)c2)cc1OCCC`, for which the GI50 with IGROV-1 was 27.9 µM (inactive); with SK-MEL-5, 10 µM (inactive); in the assay on NCI-H522, 2 µM (inactive); in the assay with SW-620, 5.13 µM (inactive); in the assay with K562, 6.1 µM (inactive); in the assay with LXFL 529 it was 5.74 µM (inactive). The GI50 was 8.61 µM (inactive) in the assay with KM12; 10.9 µM (inactive) in the assay with EKVX; 17.6 µM (inactive) with UO-31; 2.7 µM (inactive) with RPMI-8226; 3.73 µM (inactive) with SF-268; 23.9 µM (inactive) with OVCAR-3. In addition, the GI50 is 75.3 µM (inactive) in the assay with CAKI-1, 3.52 µM (inactive) in the assay on UACC-62 and 12.3 µM (inactive) in the assay on A498.

`Cc1cccc(C)c1NC(=O)C(=O)C(C#N)c1ccccc1` (configuration not stated): the GI50 in the assay with IGROV-1, in the assay with SK-MEL-5, with NCI-H522, in the assay with SW-620, in the assay with K562 and with LXFL 529 was > 100 µM (inactive) each time. The GI50 in the assay with KM12, with EKVX, in the assay on UO-31, in the assay with SF-268, with OVCAR-3 and in the assay with CAKI-1 was > 100 µM (inactive) in each case. Moreover, the GI50 in the assay on UACC-62 and with A498 was > 100 µM (inactive) each time.

`CCOc1ccc(C(CN2CCOCC2)C(C)=O)cc1OC` (configuration not stated): the GI50 is 25.2 µM (inactive) in the assay with IGROV-1; 20.1 µM (inactive) in the assay on SK-MEL-5; 1.22 µM (inactive) in the assay with NCI-H522; 16.4 µM (inactive) in the assay with SW-620; 3.1 µM (inactive) in the assay with K562; 4.46 µM (inactive) with LXFL 529. In addition, the GI50 was 15.3 µM (inactive) with KM12; 22.6 µM (inactive) in the assay on EKVX; 14.6 µM (inactive) with UO-31; 11.5 µM (inactive) in the assay on RPMI-8226; 19.7 µM (inactive) with SF-268; 10.8 µM (inactive) with CAKI-1. For the same compound, the results for the GI50 in the assay on UACC-62 and with A498 were 17.3 µM (inactive) and 26.5 µM (inactive), respectively.

Take `Cc1cc(C)c(C2=NO[C@@H]3C(=O)N(c4ccc(Cc5ccc(N6C(=O)[C@H]7C(c8c(C)cc(C)cc8C)=NO[C@H]7C6=O)cc5)cc4)C(=O)[C@H]23)c(C)c1`: the GI50 in the assay on IGROV-1, with SK-MEL-5, with SW-620, with K562, in the assay with LXFL 529 and with KM12 was > 100 µM (inactive) each time. Besides, the GI50 in the assay on EKVX, with UO-31, in the assay with RPMI-8226, in the assay with SF-268, with OVCAR-3 and in the assay on CAKI-1 was > 100 µM (inactive) throughout. The GI50 in the assay with UACC-62 and in the assay with A498 was > 100 µM (inactive) in each case.
